According to US20260108572A1, “ALZHEIMER-TYPE DEMENTIA SUPPRESSANT, AND METHOD FOR PRODUCING SAME” (Sakamoto Yakusouen, LLC, priority 2022, published 2026):

Experiments:
[1] = target: T1, Aβ derived from human (Human, 1-42) (Homo sapiens, UniProt P05067); test: Aβ accumulation inhibitory activity using Thioflavin-T; type: biochemical; settings: pure compounds, similarly to Example 5(1); Aβ 25 μM, 24 hours
T1 construct: Aβ derived from human (“Human, 1-42” manufactured by Peptide Institute); purchased Peptide Institute
T1 sequence (P05067 672-713 limits assumed): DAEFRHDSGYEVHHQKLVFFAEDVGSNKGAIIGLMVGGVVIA
Description: The Aβ accumulation inhibitory activities of each fraction were determined using Thioflavin-T in the following condition. Aβ derived from human (“Human, 1-42” manufactured by Peptide Institute) was dissolved in 0.1% ammonia water in a concentration of 250 μM. Each of the fraction samples was added to a phosphate buffer (0.05 M sodium phosphate+0.1 M sodium chloride, pH7.4) (hereinafter abbreviated as “PBS”) in the final concentrations of 0.01 g/L, 0.05 g/L and 0.1 g/L. The Aβ solution was added thereto in the final concentration of 25 μM for the reaction at 37° C. A part of the reaction mixture was collected 0, 4, 8 and 24 hours after the start of the reaction, and 2.5 μL of the collected reaction mixture was added to each well of a 96 well plate for fluorescence measurement (“Nunc FluoroNunc plate” manufactured by Thermo Fisher Science). Then, Thioflavin-T solution was dissolved in 50 mM glycine-sodium hydroxide buffer (pH 8.5), and the solution (250 μL) was added to each well. The fluorescence intensity emitted when the B sheet of the Aβ fiber was labeled with Thioflavin-T was measured. The fluorescence intensity was measured using a microplate reader (“Wallac 1420 ARVO MX” manufactured by Perkin Elmer) in the condition of a wavelength of Excitation: 420 nm and Emission: 485 nm.

[2] = target: T2, human islet amyloid polypeptide (hIAPP) (Homo sapiens, UniProt P10997); test: hIAPP accumulation inhibitory activity using Thioflavin-T; type: biochemical; settings: compounds at 1, 10, 100 μM in PBS pH7.4
T2 construct: hIAPP manufactured by Karebay Biochem was used in place of Aβ; purchased Karebay Biochem
T2 sequence (P10997 34-70 limits assumed): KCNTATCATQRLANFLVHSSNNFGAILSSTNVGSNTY

[3] = tested on: senescence-accelerated model mouse SAM-P8; test: Genome expression (RNA sequencing, PCA) in the whole brain of senescence-accelerated model mice after oral administration; type: in vivo; settings: oral 7 days: donepezil 5 mg/kg, acteoside 100 mg/kg, SSa extract powder 500 mg/kg, brain after 30 days
Description: Seven-week-old male normal aged mouse SAM-R and male senescence-accelerated model mouse SAM-P8 that were respectively obtained from Japan SLC were arbitrarily divided into two groups of 10 mice each and acclimatized for 1 week. Then, 500 mg/kg of SSa extract powder was orally administered to SAM-R SSa extract powder-administered group and SAM-P8 SSa extract powder-administered group for 7 days. Each group of mice other than the above groups was given normal feed and water freely. Next, after the mice were reared for 30 days, the mice were humanely killed by anesthesia. The whole brain was taken out and preserved at −80° C. by the genome analysis.
Next, chloroform (0.2 mL) was added thereto, and the mixture was stirred well for 15 seconds and then stood still for 2 to 3 minutes. […]
The specific mRNA was concentrated from the obtained total RNA using an RNA sample preparation kit (“TruSeq Standard mRNA Library Prep kit” manufactured by Illumina). […] Then, the sequences of the cDNA library were determined using a next-generation DNA sequencer (“NoVaSeq6000” manufactured by Illumina) in the conditions of 100 bp, Paired-end and 40,000,000 read per 1 sample.
STAR>cufflinks>cuffdif analysis was carried out to compare the analysis results. GRCm38.92 was used as a mouse genome database, and the gene expression amount in gene level and in exon level as the component element of the gene was analyzed. […]

C[C@@H]1O[C@@H](O[C@@H]2[C@@H](O)[C@H](OCCc3ccc(O)c(O)c3)O[C@H](CO)[C@H]2OC(=O)/C=C/c2ccc(O)c(O)c2)[C@H](O)[C@H](O)[C@H]1O [Acteoside, acteoside]
IC50 [1]: 13 µM | IC50 [2]: 21 µM | Difference of expression pattern from the control group on PC1 axis (PCA, gene and exon level) [3]: not a large difference

COc1cc2oc(-c3ccc(O)c(O)c3)cc(=O)c2c(O)c1O[C@@H]1O[C@H](CO)[C@@H](O)[C@H](O)[C@H]1O [Pedaliin, pedaliin]
IC50 [1]: 2.8 µM | IC50 [2]: 4.2 µM
